How the values were obtained:
[1] = molecular target: Metabotropic glutamate receptor 4 (Homo sapiens) (UniProt Q14833); experiment: Tested for inhibition of glutamate induced stimulation of Metabotropic glutamate receptor 4 in HEK 293 cells; assay type: functional, cell-based; conditions: HEK293; concentration not given here
[2] = molecular target: Metabotropic glutamate receptor 1 (Homo sapiens, UniProt Q13255); experiment: Effect of compound on Metabotropic glutamate receptor 1 expressed in HEK 293 cells was determined by measuring IP production relative to glutamate; assay type: functional, cell-based, HEK293
[3] = molecular target: Metabotropic glutamate receptor 2 (Homo sapiens) (UniProt Q14416); experiment: Tested for inhibition of glutamate induced stimulation of Metabotropic glutamate receptor 2 in HEK 293ells; assay type: functional, cell-based; conditions: HEK293; concentration not given here
Chain of Metabotropic glutamate receptor 2 (Homo sapiens) (Q14416 19-872 limits assumed): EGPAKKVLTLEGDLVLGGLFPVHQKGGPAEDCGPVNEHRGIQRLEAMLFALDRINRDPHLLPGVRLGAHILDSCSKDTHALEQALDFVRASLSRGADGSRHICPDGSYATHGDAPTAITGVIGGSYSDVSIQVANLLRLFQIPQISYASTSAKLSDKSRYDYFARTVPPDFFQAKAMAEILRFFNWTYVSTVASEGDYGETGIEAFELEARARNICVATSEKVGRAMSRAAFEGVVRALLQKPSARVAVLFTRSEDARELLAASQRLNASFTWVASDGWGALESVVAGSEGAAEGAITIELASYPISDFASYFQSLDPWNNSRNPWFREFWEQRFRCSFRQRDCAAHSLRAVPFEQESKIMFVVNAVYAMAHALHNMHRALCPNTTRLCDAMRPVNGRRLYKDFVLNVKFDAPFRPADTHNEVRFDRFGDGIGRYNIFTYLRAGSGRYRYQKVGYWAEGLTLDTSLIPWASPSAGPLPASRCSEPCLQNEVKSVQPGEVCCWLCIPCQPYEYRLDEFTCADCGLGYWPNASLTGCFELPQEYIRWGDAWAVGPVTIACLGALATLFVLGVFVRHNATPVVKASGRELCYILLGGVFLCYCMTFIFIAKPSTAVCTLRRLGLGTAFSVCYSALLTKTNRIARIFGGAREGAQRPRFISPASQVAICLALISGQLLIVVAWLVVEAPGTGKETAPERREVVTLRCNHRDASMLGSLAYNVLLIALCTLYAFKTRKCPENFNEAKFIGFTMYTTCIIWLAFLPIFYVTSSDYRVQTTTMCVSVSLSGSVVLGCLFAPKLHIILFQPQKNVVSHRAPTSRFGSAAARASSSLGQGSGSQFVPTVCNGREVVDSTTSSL

Chain of Metabotropic glutamate receptor 1 (Q13255 whole entry): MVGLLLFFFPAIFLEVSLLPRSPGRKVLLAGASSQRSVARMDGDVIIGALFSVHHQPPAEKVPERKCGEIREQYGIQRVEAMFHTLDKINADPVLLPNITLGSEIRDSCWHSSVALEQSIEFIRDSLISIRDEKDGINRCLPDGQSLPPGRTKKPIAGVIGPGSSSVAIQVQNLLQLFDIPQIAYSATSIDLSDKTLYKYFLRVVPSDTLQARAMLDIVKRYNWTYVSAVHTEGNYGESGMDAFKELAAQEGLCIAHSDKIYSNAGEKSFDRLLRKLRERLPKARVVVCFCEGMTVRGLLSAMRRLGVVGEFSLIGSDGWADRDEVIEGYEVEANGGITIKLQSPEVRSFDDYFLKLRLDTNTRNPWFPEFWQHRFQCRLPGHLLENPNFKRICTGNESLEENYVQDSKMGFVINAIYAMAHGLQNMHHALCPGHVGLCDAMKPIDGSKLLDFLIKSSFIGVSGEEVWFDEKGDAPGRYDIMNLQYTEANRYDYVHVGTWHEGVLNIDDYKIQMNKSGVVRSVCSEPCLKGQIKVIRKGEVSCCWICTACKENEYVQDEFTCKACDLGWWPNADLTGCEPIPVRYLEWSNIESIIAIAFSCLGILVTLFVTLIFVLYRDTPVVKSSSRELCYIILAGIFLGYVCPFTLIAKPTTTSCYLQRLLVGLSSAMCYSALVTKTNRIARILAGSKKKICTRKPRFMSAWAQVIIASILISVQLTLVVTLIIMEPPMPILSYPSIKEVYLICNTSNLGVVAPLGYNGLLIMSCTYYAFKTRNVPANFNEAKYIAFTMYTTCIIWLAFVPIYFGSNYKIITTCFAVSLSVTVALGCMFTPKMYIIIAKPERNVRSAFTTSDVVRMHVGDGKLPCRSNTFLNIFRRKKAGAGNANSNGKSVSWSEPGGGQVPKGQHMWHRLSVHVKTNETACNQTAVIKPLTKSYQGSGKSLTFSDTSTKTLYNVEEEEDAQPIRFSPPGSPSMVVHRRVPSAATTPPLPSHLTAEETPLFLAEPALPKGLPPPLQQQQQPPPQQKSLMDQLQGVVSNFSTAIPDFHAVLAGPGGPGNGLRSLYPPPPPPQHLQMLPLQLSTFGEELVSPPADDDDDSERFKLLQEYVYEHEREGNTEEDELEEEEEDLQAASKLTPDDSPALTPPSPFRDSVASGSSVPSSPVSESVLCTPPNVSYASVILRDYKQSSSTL
Chain of Metabotropic glutamate receptor 4 (Homo sapiens) (Q14833 whole entry): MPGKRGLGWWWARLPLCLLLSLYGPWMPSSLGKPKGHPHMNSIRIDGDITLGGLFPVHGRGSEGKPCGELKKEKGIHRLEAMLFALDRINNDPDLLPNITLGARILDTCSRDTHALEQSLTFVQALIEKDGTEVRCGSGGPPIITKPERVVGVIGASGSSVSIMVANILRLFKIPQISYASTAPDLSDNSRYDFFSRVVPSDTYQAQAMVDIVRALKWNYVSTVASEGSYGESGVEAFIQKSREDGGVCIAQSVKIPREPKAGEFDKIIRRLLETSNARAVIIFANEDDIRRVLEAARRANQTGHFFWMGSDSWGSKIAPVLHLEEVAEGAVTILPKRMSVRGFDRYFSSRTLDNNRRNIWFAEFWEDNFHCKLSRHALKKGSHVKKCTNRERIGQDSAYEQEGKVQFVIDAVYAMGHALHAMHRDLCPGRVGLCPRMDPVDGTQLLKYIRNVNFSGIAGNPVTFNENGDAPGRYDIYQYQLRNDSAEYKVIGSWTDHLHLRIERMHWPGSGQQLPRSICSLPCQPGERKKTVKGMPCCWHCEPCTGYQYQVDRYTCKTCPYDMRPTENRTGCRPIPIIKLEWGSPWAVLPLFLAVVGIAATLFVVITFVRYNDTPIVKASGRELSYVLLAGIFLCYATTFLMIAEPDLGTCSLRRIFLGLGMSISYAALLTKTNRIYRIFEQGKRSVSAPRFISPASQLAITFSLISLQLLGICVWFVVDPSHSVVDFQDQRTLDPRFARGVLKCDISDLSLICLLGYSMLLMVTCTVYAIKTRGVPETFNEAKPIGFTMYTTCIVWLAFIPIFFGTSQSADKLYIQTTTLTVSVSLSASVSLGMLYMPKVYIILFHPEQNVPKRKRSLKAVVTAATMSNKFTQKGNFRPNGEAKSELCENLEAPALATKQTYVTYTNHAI

inhibition [1]: 57% | EC50 [2]: 257 µM | inhibition [3]: 29%
SMILES: N[C@H](C(=O)O)[C@H](O)[C@H](O)C(=O)O

From ChEMBL document CHEMBL1132755, “First enantiospecific synthesis of a 3,4-dihydroxy-L-glutamic acid [(3S,4S)-DHGA], a new mGluR1 agonist” (Bioorg Med Chem Lett, 2000)
